In patent US20160177324A1, “NOVEL PROTEIN AND GENE RELATED TO FLAVONOID O-METHYLTRANSFERASE (FOMT) AND THEIR USES THEREFORE” (INSTITUTE OF BOTANY, THE CHINESE ACADEMY OF SCIENCES, priority 2013, published 2016):
Where two headings read alike, the source gives them in different places.

How the values were obtained:
PsFOMT [1] = test: In vitro enzyme assay and kinetics of recombinant PsFOMT with flavonoid substrates; assay type: biochemical, Paeonia suffruticosa cv. 'Gunpohden'; design: key to Vmax / Kcat × 10 / Kcat/Km / Specific Activity: —: no product detected; conditions: for methylation of substrate by PsFOMT / catalytical efficiency of PsFOMT fusion protein for substrate: in the presence of SAM; for Kcat × 10 / Specific Activity / Vmax / Kcat/Km: purified recombinant PsFOMT, 200 μM SAM, 1 mM MgCl2, pH 7.5, 35° C., means (SE) of triplicate assays
From the text: Full length FOMTs were amplified by primers SEQ No.7 & 8 in which restriction enzyme NdeI and BamHI site were introduced to the 5'-end and 3'-end, respectively. The DNA fragment of interest was ligated into the […]3 vector, and then the recombinant plasmid was transducted into DH5a. The FOMT cDNAs were sequenced to verify that no mutation occurred. The recombinant plasmid was isolated and digested with Ndel and BamHI. Subsequently, the fragment was ligated to the NdeI and BamHI excised expression vector pMAL-[…] with a MBP tag to yield pMAL-PsFOMT and pMAL-PtFOMT (FIG. 3). The correct construction tested by sequencing was introduced into E. coli strain BL21. E. coli harboring pMAL-PsFOMT and pMAL-PtFOMT were cultivated in 2 mL LB liquid medium containing glucose, supplemented by 100 μg/mL ampicillin until OD600 reached 0.4-0.5. After addition of isopropyl β-D-thiogalactopyranoside (IPTG) to a final concentration of 0.1 mM, the cells were further cultured at 16° C. for 20 h. Harvest the cells by centrifugation and discard the supernatant. The cells were resuspended in column buffer (20 mM Tris-HCl, 200 mM NaCl 1 mM EDTA, 10 mM β-mercaptoethanol, pH 7.4), and disrupted by sonication in an ice-water bath (Lan, T., et al., Extensive functional diversification of the Populus glutathione S-transferase supergene family. Plant Cell, 2009. 21(12): p. 3749-3766.). In each case, the homogenate was then subjected to centrifugation at 10,000 g for 10 min at 4° C. The resultant particulate material and a small portion of the supernatant were analyzed by SDS-PAGE. The rest of the supernatant was loaded onto an amylose resin column (NEB) that had been pre-equilibrated with column buffer. The overexpressed fusion protein bound to the column was eluted with column buffer plus 10 mM maltose. The concentration of purified fusion protein was detected by UV absorbance at 280 nm. As a control, BL21 cells transformed with an empty pMAL-[…] vector were assayed. The purified protein was stored at -80° C. mixed with 10% glycerol. The reaction system was according to Hugueney et al. with some modification (Hugueney, P., et al., A novel cation-dependent O-methyltransferase involved in anthocyanin methylation in grapevine. Plant Physiology, 2009. 150(4): p. 2057-2070.). Purified recombinant FOMT (2 μg) was assayed in a final volume of 200 μL containing 200 μM SAM, 1 mM MgCl2, 14 mM β-mercaptoethanol, 100 mM Tris, pH 7.5, and 20 μM flavonoid substrates. Incubation was performed at 35° C. and stopped with 200 μL methanol containing 2% formic acid. […] Reaction product was analyzed by a Dionex HPLC system (Sunnyvale, Calif.), equipped with a P680 HPLC pump, an UltiMate 3000 autosampler, a TCC-100 thermostated column compartment and a Dionex PDA100 photodiode array detector. The analytical column was C18 column of ODS 80Ts QA (150 mm×4.6 mm, 5 μm i.d., Tosoh, Tokyo) protected with a C18 guard cartridge (Shanghai ANPEL Scientific Instrument, Shanghai). The following solvent and gradient were used: A, 10% aqueous formic acid; B, methanol; constant gradient from 10 to 36% B within 15 min and back to 10% B in 3 min; the flow rate was 0.8 mL min^-1; Column temperature was maintained at 35° C.; 20 μL of analyte was injected. Chromatograms were obtained at 525 nm for anthocyanins and 350 nm for other flavonoids, and photodiode array spectra were recorded from 200 to 800 nm. Km and Vmax values were calculated from Lineweaver-Burk plots.

PtFOMT = test: In vitro enzymatic activity of recombinant PtFOMT with potential substrates; assay type: biochemical, Paeonia tenuifolia; conditions: purified recombinant PtFOMT; means ± SE of triplicate assays
From the text: Full length FOMTs were amplified by primers SEQ No.7 & 8 in which restriction enzyme NdeI and BamHI site were introduced to the 5′-end and 3′-end, respectively. The DNA fragment of interest was ligated into the pEASY-T3 vector, and then the recombinant plasmid was transducted into DH5a. The FOMT cDNAs were sequenced to verify that no mutation occurred. The recombinant plasmid was isolated and digested with Ndel and BamHI. Subsequently, the fragment was ligated to the NdeI and BamHI excised expression vector pMAL-c5X with a MBP tag to yield pMAL-PsFOMT and pMAL-PtFOMT (FIG. 3). The correct construction tested by sequencing was introduced into E. coli strain BL21. E. coli harboring pMAL-PsFOMT and pMAL-PtFOMT were cultivated in 2 mL LB liquid medium containing glucose, supplemented by 100 μg/mL ampicillin until OD600 reached 0.4-0.5. After addition of isopropyl β-D-thiogalactopyranoside (IPTG) to a final concentration of 0.1 mM, the cells were further cultured at 16° C. for 20 h. Harvest the cells by centrifugation and discard the supernatant. The cells were resuspended in column buffer (20 mM Tris-HCl, 200 mM NaCl 1 mM EDTA, 10 mM β-mercaptoethanol, pH 7.4), and disrupted by sonication in an ice-water bath (Lan, T., et al., Extensive functional diversification of the Populus glutathione S-transferase supergene family. Plant Cell, 2009. 21(12): p. 3749-3766.). In each case, the homogenate was then subjected to centrifugation at 10,000 g for 10 min at 4° C. The resultant particulate material and a small portion of the supernatant were analyzed by SDS-PAGE. The rest of the supernatant was loaded onto an amylose resin column (NEB) that had been pre-equilibrated with column buffer. The overexpressed fusion protein bound to the column was eluted with column buffer plus 10 mM maltose. The concentration of purified fusion protein was detected by UV absorbance at 280 nm. As a control, BL21 cells transformed with an empty pMAL-c5X vector were assayed. The purified protein was stored at −80° C. mixed with 10% glycerol.
The reaction system was according to Hugueney et al. with some modification (Hugueney, P., et al., A novel cation-dependent O-methyltransferase involved in anthocyanin methylation in grapevine. Plant Physiology, 2009. 150(4): p. 2057-2070.). Purified recombinant FOMT (2 μg) was assayed in a final volume of 200 μL containing 200 μM SAM, 1 mM MgCl2, 14 mM β-mercaptoethanol, 100 mM Tris, pH 7.5, and 20 μM flavonoid substrates. Incubation was performed at 35° C. and stopped with 200 μL methanol containing 2% formic acid. For enzyme kinetic studies, purified FOMT was incubated based on the above condition with the exception that a range of substrate concentrations from 5 to 200 μM were used for Km determination. Reaction product was analyzed by a Dionex HPLC system (Sunnyvale, Calif.), equipped with a P680 HPLC pump, an UltiMate 3000 autosampler, a TCC-100 thermostated column compartment and a Dionex PDA100 photodiode array detector. The analytical column was C18 column of ODS 80Ts QA (150 mm×4.6 mm, 5 μm i.d., Tosoh, Tokyo) protected with a C18 guard cartridge (Shanghai ANPEL Scientific Instrument, Shanghai). […] Chromatograms were obtained at 525 nm for anthocyanins and 350 nm for other flavonoids, and photodiode array spectra were recorded from 200 to 800 nm. Km and Vmax values were calculated from Lineweaver-Burk plots.

PsFOMT [2] = test: In vitro enzyme assay and kinetics of recombinant PsFOMT with flavonoid substrates; assay type: biochemical, Paeonia suffruticosa cv. 'Gunpohden'; design: key: —: no product detected; conditions: purified recombinant PsFOMT, 200 μM SAM, 1 mM MgCl2, pH 7.5, 35° C., substrate 5 to 200 μM, means (SE) of triplicate assays
[3] = test system: cyanidin 3-glucoside 3′-O-methyltransferase (CGMT); conditions: partially purified from Vitis vinifera cell suspension; Bailly et al. 1997; cited from earlier work

Compound	methylation of substrate by PsFOMT (PsFOMT [1])	Kcat × 10 (PsFOMT [1])	Specific Activity (PsFOMT [1])	Vmax (PsFOMT [1])	Specific Activity (PtFOMT) [pkat mg^−1]	Km (PsFOMT [2]; read-out: Km) [µM]	catalytical efficiency of PsFOMT fusion protein for substrate (PsFOMT [1])	Kcat/Km (PsFOMT [1])	Km (PsFOMT [2])	activity of CGMT with substrate [3]
O=c1c(O)c(-c2ccc(O)c(O)c2)oc2cc(O)cc(O)c12 [Quercetin]	can be methylated	9.83 (0.12) s^−1	142 (2) pkat mg^−1	1.77 (0.02) nM s^−1	17.58 ± 0.57	4.33				
OC[C@H]1O[C@@H](Oc2cc3c(O[C@@H]4O[C@H](CO)[C@@H](O)[C@H](O)[C@H]4O)cc(O)cc3[o+]c2-c2ccc(O)c(O)c2)[C@H](O)[C@@H](O)[C@@H]1O [Cyanidin 3,5-di-O-glucoside]		127.70 (1.05) s^−1	1788 (15) pkat mg^−1	17.88 (0.25) nM s^−1	29.60 ± 3.47	1.06	high catalytical efficiency			
O=c1cc(-c2ccc(O)c(O)c2)oc2cc(O)cc(O)c12 [Luteolin]		—	—	—				—	—	
C[C@@H]1O[C@@H](OC[C@H]2O[C@@H](Oc3c(-c4ccc(O)c(O)c4)oc4cc(O)cc(O)c4c3=O)[C@H](O)[C@@H](O)[C@@H]2O)[C@H](O)[C@H](O)[C@H]1O [Quercetin 3-O-rutinoside]	can be methylated	192.11 (4.41) s^−1	2744 (135) pkat mg^−1	27.44 (1.63) nM s^−1	30.20 ± 0.24	12.3				
OC[C@H]1O[C@@H](Oc2cc3c(O)cc(O)cc3[o+]c2-c2ccc(O)cc2)[C@H](O)[C@@H](O)[C@@H]1O [Pelargonidin 3-O-glucoside]		—	—	—				—	—	
OC[C@H]1O[C@@H](Oc2cc3c(O)cc(O)cc3[o+]c2-c2ccc(O)c(O)c2)[C@H](O)[C@@H](O)[C@H]1O [Cyanidin 3-O-galactoside]	can be methylated	217.90 (36.48) s^−1	3138 (525) pkat mg^−1	39.22 (6.57) nM s^−1		31.7				
OC[C@H]1O[C@@H](Oc2cc3c(O)cc(O)cc3[o+]c2-c2ccc(O)c(O)c2)[C@H](O)[C@@H](O)[C@@H]1O [Cyanidin 3-O-glucoside]		161.99 (0.73) s^−1	2314 (11) pkat mg^−1	11.57 (0.05) nM s^−1	37.98 ± 1.05	1.76	high catalytical efficiency			
O=c1c(O)c(-c2ccc(O)cc2)oc2cc(O)cc(O)c12 [Kaempferol]		—	—	—				—	—	
O=C(/C=C/c1ccc(O)cc1)OC[C@H]1O[C@@H](Oc2cc3c(O)cc(=O)cc-3oc2-c2ccc(O)c(O)c2)[C@H](O)[C@@H](O)[C@@H]1O [cyanidin 3-p-coumaroyl glucoside]										no activity
O=C1C[C@@H](c2ccc(O)cc2)Oc2cc(O)cc(O)c21 [Naringenin]		—	—	—				—	—	
O=C(O)/C=C/c1ccc(O)c(O)c1 [Caffeic acid]		—	—	—				—	—	
OC[C@H]1O[C@@H](Oc2cc3c(O)cc(O)cc3[o+]c2-c2cc(O)c(O)c(O)c2)[C@H](O)[C@@H](O)[C@@H]1O [Delphinidin 3-O-glucoside]	sequentially methylate 3′- and 5′-OH at B ring	94.72 (1.49) s^−1	1364 (21) pkat mg^−1	17.05 (0.27) nM s^−1	21.50 ± 0.10	4.11				
